# Experimental data: ChEMBL document CHEMBL2380255, “Dual targeting of adenosine A(2A) receptors and monoamine oxidase B by 4H-3,1-benzothiazin-4-ones” (J Med Chem, 2013)
# Columns and labels:
# [1] = biological target: T1, Adenosine receptor A1 (Rattus norvegicus, UniProt P25099); test: Displacement of [3H]CCPA from adenosine A1 receptor in rat brain cortical membranes after 90 mins by liquid scintillation counting analysis; format: cell membranes, Membrane
# T1 sequence (P25099 whole entry): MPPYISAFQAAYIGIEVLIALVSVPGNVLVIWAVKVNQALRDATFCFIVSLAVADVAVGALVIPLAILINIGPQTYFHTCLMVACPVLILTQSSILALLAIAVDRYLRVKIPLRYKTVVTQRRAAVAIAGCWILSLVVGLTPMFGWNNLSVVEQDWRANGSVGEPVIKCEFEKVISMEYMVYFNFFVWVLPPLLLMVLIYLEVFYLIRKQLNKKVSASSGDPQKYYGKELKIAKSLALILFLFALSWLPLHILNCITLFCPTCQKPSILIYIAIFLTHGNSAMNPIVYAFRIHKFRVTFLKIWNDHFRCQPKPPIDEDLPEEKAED
# [2] = biological target: Adenosine receptor A2a (Rattus norvegicus, UniProt P30543); test: Displacement of [3H]MSX2 from adenosine A2A receptor in rat brain striatal membranes after 30 mins by liquid scintillation counting analysis; format: cell membranes, Membrane
# [3] = biological target: T2, Adenosine receptor A2b (Homo sapiens, UniProt P29275); test: Displacement of [3H]PSB-603 from human recombinant adenosine A2B receptor expressed in CHO cells after 75 mins by liquid scintillation counting analysis; format: cell-based
# T2 sequence (P29275 whole entry): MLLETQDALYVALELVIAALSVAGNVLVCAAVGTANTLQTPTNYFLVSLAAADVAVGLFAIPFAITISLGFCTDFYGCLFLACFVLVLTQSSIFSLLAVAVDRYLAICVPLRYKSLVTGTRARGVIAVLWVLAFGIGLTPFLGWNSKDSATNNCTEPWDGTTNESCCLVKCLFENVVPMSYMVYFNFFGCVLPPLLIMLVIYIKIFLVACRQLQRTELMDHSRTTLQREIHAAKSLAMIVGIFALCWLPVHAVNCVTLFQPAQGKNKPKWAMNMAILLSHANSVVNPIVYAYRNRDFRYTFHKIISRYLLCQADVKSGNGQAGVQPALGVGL
# [4] = biological target: T3, Amine oxidase [flavin-containing] B (Homo sapiens, UniProt P27338); test: Inhibition of recombinant human MAO-B expressed in baculovirus-infected insect cells using p-tyramine as substrate incubated for 30 mins prior to substrate addition measured for 45 mins by amplex red reagent-based microplate fluorescence reader analysis; format: cell-based
# T3 sequence (P27338 whole entry): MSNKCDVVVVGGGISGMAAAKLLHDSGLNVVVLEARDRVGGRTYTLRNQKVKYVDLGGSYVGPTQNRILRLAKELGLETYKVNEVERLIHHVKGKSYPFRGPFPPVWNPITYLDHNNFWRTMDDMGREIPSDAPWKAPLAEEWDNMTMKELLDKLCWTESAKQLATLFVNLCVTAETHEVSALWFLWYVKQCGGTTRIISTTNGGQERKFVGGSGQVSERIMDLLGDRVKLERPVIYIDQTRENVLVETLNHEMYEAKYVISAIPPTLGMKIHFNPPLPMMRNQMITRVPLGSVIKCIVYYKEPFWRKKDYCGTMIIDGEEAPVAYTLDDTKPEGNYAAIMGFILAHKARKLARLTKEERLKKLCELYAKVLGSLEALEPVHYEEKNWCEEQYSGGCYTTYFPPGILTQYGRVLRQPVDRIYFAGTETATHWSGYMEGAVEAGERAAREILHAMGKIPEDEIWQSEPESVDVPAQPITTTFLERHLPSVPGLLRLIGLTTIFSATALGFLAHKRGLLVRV
# [5] = biological target: T4, Adenosine receptor A3 (Homo sapiens, UniProt P0DMS8); test: Displacement of [3H]PSB-11 from human recombinant adenosine A3 receptor expressed in CHO cells after 60 mins by liquid scintillation counting analysis; format: cell-based
# T4 sequence (P0DMS8 whole entry): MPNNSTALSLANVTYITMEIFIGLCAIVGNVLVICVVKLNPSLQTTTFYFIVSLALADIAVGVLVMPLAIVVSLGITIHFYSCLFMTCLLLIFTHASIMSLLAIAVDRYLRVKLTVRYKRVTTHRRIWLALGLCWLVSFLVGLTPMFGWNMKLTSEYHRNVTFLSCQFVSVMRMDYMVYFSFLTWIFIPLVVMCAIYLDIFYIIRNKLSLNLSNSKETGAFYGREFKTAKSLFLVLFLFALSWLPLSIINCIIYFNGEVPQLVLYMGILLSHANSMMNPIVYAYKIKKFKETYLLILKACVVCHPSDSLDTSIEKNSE
# [6] = biological target: T5, Amine oxidase [flavin-containing] B (Rattus norvegicus, UniProt P19643); test: Inhibition of MAO-B in mitochondria-enriched Sprague-Dawley rat liver fractions using p-tyramine as substrate incubated for 30 mins prior to substrate addition measured for 45 mins by amplex red reagent-based microplate fluorescence reader analysis
# T5 sequence (P19643 whole entry): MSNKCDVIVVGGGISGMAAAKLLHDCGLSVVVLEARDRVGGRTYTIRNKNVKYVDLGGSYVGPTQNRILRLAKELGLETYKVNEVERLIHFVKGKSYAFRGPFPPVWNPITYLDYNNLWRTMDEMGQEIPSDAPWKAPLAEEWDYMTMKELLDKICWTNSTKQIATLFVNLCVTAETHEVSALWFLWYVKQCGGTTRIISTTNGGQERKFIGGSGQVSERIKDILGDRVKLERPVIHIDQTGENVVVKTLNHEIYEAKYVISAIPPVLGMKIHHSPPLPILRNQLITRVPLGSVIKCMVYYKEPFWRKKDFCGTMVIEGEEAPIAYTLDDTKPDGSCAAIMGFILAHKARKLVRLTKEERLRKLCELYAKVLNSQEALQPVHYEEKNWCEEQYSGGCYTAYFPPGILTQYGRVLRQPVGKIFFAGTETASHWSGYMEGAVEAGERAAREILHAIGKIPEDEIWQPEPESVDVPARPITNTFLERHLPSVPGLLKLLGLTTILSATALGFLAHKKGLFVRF
# [7] = Selectivity ratio of IC50 for MAO-B in mitochondria-enriched Sprague-Dawley rat liver fractions to IC50 for recombinant human MAO-B
# [8] = biological target: T6, Adenosine receptor A1 (Homo sapiens, UniProt P30542); test: Displacement of [3H]CCPA from human recombinant adenosine A1 receptor expressed in CHO cells after 90 mins by liquid scintillation counting analysis; format: cell-based
# T6 sequence (P30542 whole entry): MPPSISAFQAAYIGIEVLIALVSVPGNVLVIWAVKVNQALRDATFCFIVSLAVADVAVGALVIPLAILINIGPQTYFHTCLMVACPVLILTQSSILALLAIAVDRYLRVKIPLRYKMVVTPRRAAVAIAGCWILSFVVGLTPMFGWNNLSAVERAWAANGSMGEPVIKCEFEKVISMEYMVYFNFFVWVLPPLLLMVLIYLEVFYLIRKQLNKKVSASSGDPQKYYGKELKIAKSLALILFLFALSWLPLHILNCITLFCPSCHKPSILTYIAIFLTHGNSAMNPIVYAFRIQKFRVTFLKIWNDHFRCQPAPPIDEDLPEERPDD
# [9] = biological target: Adenosine receptor A2a (Homo sapiens, UniProt P29274); test: Displacement of [3H]MSX2 from human recombinant adenosine A2A receptor expressed in CHO cells after 30 mins by liquid scintillation counting analysis; format: cell-based
# [10] = species: Homo sapiens; test: Selectivity ratio of Ki for human recombinant adenosine A2B receptor to Ki for human recombinant adenosine A2A receptor
# [11] = species: Homo sapiens; test: Selectivity ratio of Ki for human recombinant adenosine A3 receptor to Ki for human recombinant adenosine A2A receptor
# Adenosine receptor A2a (Rattus norvegicus, UniProt P30543), sequence (P30543 whole entry): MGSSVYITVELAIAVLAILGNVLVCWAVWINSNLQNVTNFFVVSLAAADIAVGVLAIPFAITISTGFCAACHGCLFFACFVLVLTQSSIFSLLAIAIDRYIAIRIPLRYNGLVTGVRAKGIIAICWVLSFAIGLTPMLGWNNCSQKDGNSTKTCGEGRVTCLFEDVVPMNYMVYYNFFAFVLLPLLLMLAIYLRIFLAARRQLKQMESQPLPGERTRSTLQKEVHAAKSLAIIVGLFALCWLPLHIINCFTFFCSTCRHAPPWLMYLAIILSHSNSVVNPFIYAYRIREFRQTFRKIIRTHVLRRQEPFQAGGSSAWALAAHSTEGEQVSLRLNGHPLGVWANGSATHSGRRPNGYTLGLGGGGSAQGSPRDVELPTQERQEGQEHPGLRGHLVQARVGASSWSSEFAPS
# Adenosine receptor A2a (Homo sapiens, UniProt P29274), sequence (P29274 whole entry): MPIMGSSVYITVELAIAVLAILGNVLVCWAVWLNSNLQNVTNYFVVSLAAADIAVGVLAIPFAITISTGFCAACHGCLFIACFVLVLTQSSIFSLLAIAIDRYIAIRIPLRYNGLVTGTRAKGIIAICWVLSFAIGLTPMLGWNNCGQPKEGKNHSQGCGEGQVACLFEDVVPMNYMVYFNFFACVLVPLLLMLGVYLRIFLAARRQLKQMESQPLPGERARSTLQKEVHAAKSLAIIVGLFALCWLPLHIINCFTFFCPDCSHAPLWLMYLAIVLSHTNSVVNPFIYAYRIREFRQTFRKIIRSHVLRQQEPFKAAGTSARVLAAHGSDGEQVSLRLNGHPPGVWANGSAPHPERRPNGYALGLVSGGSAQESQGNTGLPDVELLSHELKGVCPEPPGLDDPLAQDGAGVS
SMILES,Ki [1] [nM],Ki [2] [nM],Ki [3] [nM],IC50 [4] [nM],Ki [5] [nM],IC50 [6] [nM],Ratio IC50 [7],Ki [8] [nM],Ki [9] [nM],Ratio Ki [10],Ratio Ki [11]
O=C(CCCc1ccccc1)Nc1nc2ccc(Cl)cc2c(=O)s1,> 10000,> 10000,> 1000,> 10000,> 1000,> 10000,1.4,–,–,–,–
O=C(CCCc1ccccc1)Nc1nc2ccc(Br)cc2c(=O)s1,> 10000,> 10000,> 1000,> 10000,> 1000,> 10000,1.4,–,–,–,–
O=C(CCCc1cccc(Cl)c1)Nc1nc2ccccc2c(=O)s1,898,> 10000,≥ 1000,> 1000,> 1000,6880,1.4,> 10000,–,–,–
Cc1ccc2nc(NC(=O)CCCc3ccccc3)sc(=O)c2c1,98.3,6060,408,94,147,325,1.4,1000,–,–,–
O=C(Nc1nc2ccccc2c(=O)s1)c1ccc(C(=O)N2CCN(Cc3ccccc3)CC2)cc1,–,–,–,> 10000,–,–,1.4,–,–,–,–
O=C(/C=C/c1cccc(Cl)c1)Nc1nc2ccccc2c(=O)s1,≥ 10000,> 10000,> 1000,93.3,> 1000,815,1.4,–,> 1000,–,–
O=C(Nc1nc2ccccc2c(=O)s1)c1ccc(C(=O)N2CCN(Cc3ccccc3Cl)CC2)cc1,–,> 10000,> 1000,> 10000,> 1000,–,1.4,> 1000,> 1000,–,–
O=C(CCc1ccc(Cl)c(Cl)c1)Nc1nc2ccccc2c(=O)s1,> 1500,> 10000,> 1000,> 10000,> 1000,> 10000,1.4,–,–,–,–
O=C(CCc1ccccc1F)Nc1nc2ccccc2c(=O)s1,> 10000,2190,801,11.2,≥ 1000,725,65,–,–,–,–
O=C(CCCc1ccccc1)Nc1nc2cc(Cl)ccc2c(=O)s1,64.4,≥ 10000,> 1000,76.4,91.6,1220,1.4,785,–,–,–
COc1cccc(/C=C/C(=O)Nc2nc3ccccc3c(=O)s2)c1,205,253,679,470,> 1000,281,–,> 10000,62.4,10,> 16
O=C(Nc1nc2ccccc2c(=O)s1)c1ccc(C(=O)N2CCN(Cc3cccc(Cl)c3)CC2)cc1,–,84.7,> 1000,> 10000,> 1000,–,1.4,> 1000,58.3,–,–
O=C(CCCc1ccc(Cl)c(Cl)c1)Nc1nc2ccccc2c(=O)s1,> 1500,> 10000,> 1000,3440,> 1000,3300,–,–,–,–,–
O=C(C/C=C/c1ccc(Cl)c(Cl)c1)Nc1nc2ccccc2c(=O)s1,≥ 1500,> 1000,> 1000,> 10000,> 1000,4640,–,–,–,–,–
COCCOc1ccc(N2CCN(CCn3ncc4c3nc(N)n3nc(-c5ccco5)nc43)CC2)cc1 [PRELADENANT],68.7,0.66,> 1000,–,> 1000,–,–,295,0.884,–,–
CN(C(=O)CCCc1ccccc1)c1nc2ccccc2c(=O)s1,> 10000,> 10000,> 1000,53.1,> 1000,–,1.4,–,> 10000,–,–
O=C(CCc1ccccc1Br)Nc1nc2ccccc2c(=O)s1,> 10000,> 10000,> 1000,2.09,> 1000,64,31,–,–,–,–
O=C(CCCc1ccccc1)Nc1nc2ccsc2c(=O)s1,≥ 10000,> 10000,547,206,> 1000,298,1.4,–,–,–,–
COc1cccc(CCCC(=O)Nc2nc3ccccc3c(=O)s2)c1,22.5,558,302,389,382,1300,1.4,214,115,–,–
COc1cccc(C#CC(=O)Nc2nc3ccccc3c(=O)s2)c1,> 10000,1720,> 1000,43.7,> 1000,73.9,1.4,–,≥ 1000,–,–
O=C(C/C=C/c1ccccc1)Nc1nc2ccccc2c(=O)s1,53,814,119,39.8,158,361,1.4,822,118,–,–
Cc1sc2nc(NC(=O)CCCc3ccccc3)sc(=O)c2c1C,> 10000,> 10000,> 1000,9.8,> 1000,26.6,1.4,–,–,–,–
O=C(Nc1nc2ccccc2c(=O)s1)c1ccccc1,–,–,–,–,–,> 10000,1.4,–,–,–,–
